Laboratory results from patent US20250161283A1, “USE OF INDAZOLE COMPOUND FOR TREATING PSORIASIS” (WUHAN CREATERNA SCIENCE AND TECHNOLOGY CO., LTD., priority 2022, published 2025).

System: BALB/c mice
Test: IMQ (imiquimod) cream-induced psoriasis mouse model
Format: in vivo
Conditions: male BALB/c mice, 15 mg/kg intragastric, twice daily
Protocol: BALB/c mice, male, 8 weeks old, SPF grade, provided by Shanghai Lingchang Biotechnology Co., Ltd.
In the drawings: • Group 1 Vaseline-Topical Vehicle P.O indicates a normal control group (vehicle group). • Group 2 IMQ+Vehicle P.O indicates a model control group (vehicle group). • Group 3 IMQ+Dex-Topical indicates a positive control group (dexamethasone). • Group 4 IMQ+A 15 mg/kg P.O indicates a compound group (A, 15 mg/kg, intragastric administration). • Group 5 IMQ+B 15 mg/kg P.O indicates a compound group (B, 15 mg/kg, intragastric administration).
First, 50 mice were randomly divided into 5 groups based on body weight: compound group 1—normal control group (vehicle group); compound group 2—model control group (vehicle group); compound group 3—positive control group (dexamethasone); compound group 4 (compound A, 15 mg/kg, intragastrically administered); compound group 5 (compound B, 15 mg/kg, intragastrically administered). On day 0 of the experiment, the dorsal hair of mice in each group was shaved, removing approximately 2 cm*3 cm area of hair. From day 1 to day 7 of the experiment, except for the normal control group, each mouse received an application of 62.5 mg of 5% IMQ cream on the shaved dorsal area and 20.0 mg of 5% IMQ cream on both sides of the right ear. The normal control group received an application of Vaseline. From day 1 to day 8 of the experiment, two hours before IMQ cream stimulation, the above groups were treated with corresponding drugs. The mice were weighed and shaved prior to administration, which was recorded as day 0. The mice were administered drugs from day 1 to day 8, twice daily.
• 1.5.1. Body weight and rate of change: The body weight was recorded, and the rate of change in body weight was calculated. The results are shown in FIG. 1 (presented as Mean±SEM, where *P<0.05, **P<0.01, ***P<0.001, V.S. model control group, Two-way ANOVA, Bonferroni posttests, n=10). • 1.5.2. Right ear thickness measurement: The thickness of the right ear of animals in each group was measured and recorded using a micrometer. The results are shown in FIG. 2 (Note: data presented as Mean±SEM, where *P<0.05, **P<0.01, ***P<0.001, V.S. model control group, Two-way ANOVA, Bonferroni posttests, n=10; data presented as Mean±SEM, where #P<0.5, ##P<0.01, ###P<0.001, V.S. Group 4, Two-way ANOVA, Bonferroni posttests, n=10) • 1.5.3. Dorsal skin scoring: On days 1, 3, 5, and 7, a representative photograph was taken for each group, and clinical scoring of the dorsal skin was performed. The clinical scoring criteria are shown in Table 1, and the results are shown in FIG. 3 (data presented as Mean±SEM, where *P<0.05, **P<0.01, ***P<0.001, V.S. model control group, Two-way ANOVA, Bonferroni posttests, n=10; data presented as Mean±SEM, where #P<0.5, ##P<0.01, ###P<0.001, V.S. Group 4, Two-way ANOVA, Bonferroni posttests, n=10).
• 1.5.4. Spleen weight: On day 8, mice in each group were euthanized by CO2 inhalation, and the spleens were rapidly excised. Right ear and dorsal skin samples were also collected. One-third of the dorsal skin, spleen, and right ear tissues were fixed in 10% neutral formalin fixative for preparation of paraffin sections and HE staining. Another one-third of the dorsal skin was snap-frozen in liquid nitrogen for ELISA analysis. The remaining one-third of the dorsal skin was snap-frozen in liquid nitrogen and stored in a −80° C. freezer for future use. The results are shown in FIG. 4 (Note: data presented as Mean±SEM, where *P<0.05, **P<0.01, ***P<0.001, V.S. model control group, One-way ANOVA, Bonferroni posttests, n=10; data presented as Mean±SEM, where #P<0.5, ##P<0.01, ###P<0.001, V.S. Group 4, One-way ANOVA, Bonferroni posttests, n=10). • 1.5.5. Dorsal skin pathology scoring: Dorsal skin tissue samples were collected from mice and fixed in 10% neutral formalin fixative for 48 hours. The tissues were then degreased in 75% ethanol for 72 hours, with daily medium changes. […]

SMILES: COc1cc2nn([C@H]3CC[C@](C)(O)CC3)cc2cc1NC(=O)c1cccc(C)[n+]1[O-] [Compound B, 2-((2-(trans-4-hydroxy-cis-4-methylcyclohexyl)-6-methoxy-2H-indazol-5-yl)carbamoyl)-6-methylpyridine 1-oxide]
- disease symptoms in the keratin, epidermis, and dermis of the dorsal skin (HE staining of dorsal skin, compared to model control group): alleviation
- dorsal skin pathological scores (HE staining of dorsal skin, compared to model control group, FIG. 5): significant reduction
- psoriasis symptoms (compared to model control group): significant reduction
- weight loss (body weight and rate of change) (day 1 to day 8, compared to model control group, FIG. 1): significantly inhibited
- increase in right ear thickness (day 1 to day 8, compared to model control group, FIG. 2): significantly inhibited
- PASI clinical scores (dorsal skin: erythema, crusting, skin thickness, score 0-4) (scored on days 1, 3, 5, 7, compared to model control group, FIG. 3): significant reduction
- increase in spleen weight (spleen enlargement) (spleen excised on day 8, compared to model control group, FIG. 4): significantly inhibited
